Source: patent US20080280879A1, “SUBSTITUTED HETEROCYCLIC DERIVATIVES AND THEIR PHARMACEUTICAL USE AND COMPOSITIONS” (priority 2007, published 2008)
Values after ≈ are worked out from the molar mass of the structure shown.

Tests used:
Type in all cases: cell-based, Staphylococcus aureus
Staph aureus 1095 MRSA = experiment: MIC, microtiter broth dilution (CLSI M7-A7), Assay 1, Table 12 column A, no serum; conditions: Assay 1, no serum; for MIC: Staphylococcus aureus, MRSA
In short: (§1)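 MIC read as lowest drug level giving no macroscopically visible growth, μg/ml. Method: CLSI M7-A7 microtiter broth dilution, M100-S16 interpretation. Serum arm: inoculum in Mueller-Hinton Broth + 50% pooled inactivated human serum. Multiple runs → geometric mean.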

Staph aureus 1146 [1] = experiment: MIC, microtiter broth dilution (CLSI M7-A7), Assay 1, Table 12 column B, no serum; conditions: for MIC: Staphylococcus aureus, 1146, Staph aureus 1146, Assay 1, no serum; for MIC, column B: Staph aureus 1146, Assay 1, no serum
In short: as §1

Staph aureus 1146 [2] = experiment: MIC in Mueller-Hinton Broth with 50% pooled inactivated human serum, Assay 1, Table 12; conditions: for MIC: Staphylococcus aureus, 1146, Staph aureus 1146, Assay 1, 50% human serum, read-out: MIC, column C; for MIC, column C: Staph aureus 1146, Assay 1, 50% human serum
In short: as §1

Staph aureus 2811 = experiment: MIC, microtiter broth dilution (CLSI M7-A7), Assay 1, Table 12 column D, no serum; conditions: for MIC: Staphylococcus aureus, 2811, Staph aureus 2811, Assay 1, no serum; for MIC, column D: Staph aureus 2811, Assay 1, no serum
In short: as §1

Staph aureus 2812 = experiment: MIC, microtiter broth dilution (CLSI M7-A7), Assay 1, Table 12 column E, no serum; conditions: for MIC: Staphylococcus aureus, 2812, Staph aureus 2812, Assay 1, no serum; for MIC, column E: Staph aureus 2812, Assay 1, no serum
In short: as §1

| Compound | MIC (Staph aureus 1095 MRSA) | MIC (Staph aureus 1146 [1]) | MIC (Staph aureus 1146 [2]) | MIC (Staph aureus 2811) | MIC (Staph aureus 2812) | MIC, column A (Staph aureus 1095 MRSA) | MIC, column B (Staph aureus 1146 [1]) | MIC, column C (Staph aureus 1146 [2]) | MIC, column D (Staph aureus 2811) | MIC, column E (Staph aureus 2812) |
| --- | --- | --- | --- | --- | --- | --- | --- | --- | --- | --- |
| COc1ccc2nccc(C(O)CC[C@@H]3CCN(C4CC(c5c(C)cccc5C)C4)C[C@@H]3C(=O)O)c2c1 (stereo partly drawn) [Example 35, (3R,4R)-1-[3-(2,6-dimethylphenyl)cyclobutyl]-4-[3-hydroxy-3-(6-methoxyquinolin-4-yl)propyl] piperidine-3-carboxylic acid] | 4 µg/mL (≈ 7.96 µM) | 1 µg/mL (≈ 1.99 µM) | 64 µg/mL (≈ 127 µM) | 1 µg/mL (≈ 1.99 µM) | 1 µg/mL (≈ 1.99 µM) | – | – | – | – | – |
| COc1ccc2ncc(F)c(C(O)CC[C@@H]3CCN(C4CC(c5ccccc5)C4)C[C@@H]3C(=O)O)c2c1 (mixture of isomers) [Example 14, (3R,4R)-4-[3-(3-fluoro-6-methoxyquinolin-4-yl)-3-hydroxypropyl]-1-(3-phenylcyclobutyl)piperidine-3-carboxylic acid] | ≤ 0.0947 µg/mL | 0.158 µg/mL | ≤ 0.379 µg/mL | ≤ 0.0947 µg/mL | ≤ 0.0947 µg/mL | – | – | – | – | – |
| COc1ccc2nccc(C(O)CC[C@@H]3CCN(C4CC(C5CCCCC5)C4)C[C@@H]3C(=O)O)c2c1 (stereo partly drawn) [Example 44, (3R,4R)-1-(3-cyclohexylcyclobutyl)-4-[3-hydroxy-3-(6-methoxyquinolin-4-yl)propyl]piperidine-3-carboxylic acid] | 0.5 µg/mL (≈ 1.04 µM) | 0.25 µg/mL (≈ 0.52 µM) | 2 µg/mL (≈ 4.16 µM) | 0.125 µg/mL (≈ 0.26 µM) | 0.125 µg/mL (≈ 0.26 µM) | – | – | – | – | – |
| 3-{[2-(3-chloro-6-methoxyquinolin-4-yl)ethyl]amino}-1-(cis-3-phenylcyclobutyl)pyrrolidine-3-carboxylic acid [Example 113] | – | – | – | – | – | 0.125 µg/mL | <=.0625 μg/ml | 16 µg/mL | 0.125 µg/mL | 0.25 µg/mL |
| COc1ccc2ncc(F)c(C(O)CCC3(C(=O)O)CCN(C4CC(c5ccccc5)C4)CC3)c2c1 (stereo not shown) [Example 24, 4-[3-(3-fluoro-6-methoxyquinolin-4-yl)-3-hydroxypropyl]-1-(3-phenylcyclobutyl)piperidine-4-carboxylic acid] | 16 µg/mL (≈ 32.5 µM) | 4 µg/mL (≈ 8.12 µM) | > 64 µg/mL | 4 µg/mL (≈ 8.12 µM) | 8 µg/mL (≈ 16.2 µM) | – | – | – | – | – |
| COc1ccc2ncc(F)c(CCCC3(C(=O)O)CCN(C4CC(c5ccccc5)C4)C3)c2c1 (stereo not shown) [Example 173, 3-[3-(3-fluoro-6-methoxyquinolin-4-yl)propyl]-1-(3-phenylcyclobutyl)pyrrolidine-3-carboxylic acid] | < 0.0625 µg/mL | < 0.0625 µg/mL | 8 µg/mL (≈ 17.3 µM) | < 0.0625 µg/mL | < 0.0625 µg/mL | – | – | – | – | – |
| COc1ccc2nccc([C@@H](O)CC[C@@H]3CCN(C4CC5c6ccccc6SC54)C[C@@H]3C(=O)O)c2c1 (stereo partly shown) [Example 225] | 1 µg/mL (≈ 1.98 µM) | 0.25 µg/mL (≈ 0.495 µM) | 2 µg/mL (≈ 3.96 µM) | 0.25 µg/mL (≈ 0.495 µM) | 0.5 µg/mL (≈ 0.991 µM) | – | – | – | – | – |
| COc1ccc2nccc([C@@H](O)CC[C@@H]3CCN(C4CC(c5cccc(Cl)c5F)C4)C[C@@H]3C(=O)O)c2c1 (stereo partly drawn) [Example 64, (3R,4R)-1-[3-(3-chloro-2-fluorophenyl)cyclobutyl]-4-[(3S)-3-hydroxy-3-(6-methoxyquinolin-4-yl)propyl]piperidine-3-carboxylic acid] | ≤ 0.0625 µg/mL | ≤ 0.0625 µg/mL | 8 µg/mL (≈ 15.2 µM) | ≤ 0.0625 µg/mL | ≤ 0.0625 µg/mL | – | – | – | – | – |
| O=C(O)[C@H]1CN(C2CC(c3ccccc3)C2)CC[C@H]1CCC(O)c1ccnc2ccc(OC(F)F)cc12 (stereo partly shown) [Example 143] | – | – | – | – | – | 1 µg/mL (≈ 1.96 µM) | 0.5 µg/mL (≈ 0.979 µM) | 2 µg/mL (≈ 3.92 µM) | 0.5 µg/mL (≈ 0.979 µM) | 1 µg/mL (≈ 1.96 µM) |
| COc1ccc2nccc(C(F)CC[C@@H]3CCN(C4CC(c5ccccc5)C4)C[C@@H]3C(=O)O)c2c1 (stereo partly drawn) [Example 134, (3R,4R)-4-(3-fluoro-3-(6-methoxyquinolin-4-yl)propyl)-1-(3-phenylcyclobutyl)piperidine-3-carboxylic acid] | – | – | – | – | – | <=.0625 μg/ml | <=.0625 μg/ml | 4 µg/mL (≈ 8.39 µM) | <=.0625 μg/ml | <=.0625 μg/ml |
| COc1ccc2ncc(F)c(C(O)CC[C@@H]3CCN(C4CC(c5cc(F)ccc5F)C4)C[C@@H]3C(=O)O)c2c1 (single isomer, unassigned) [Example 59] | ≤ 0.0625 µg/mL | ≤ 0.0625 µg/mL | – | ≤ 0.0625 µg/mL | ≤ 0.0625 µg/mL | – | – | <=.0625 μg/ml | – | – |
| COc1ccc2nccc(C(O)CC[C@@H]3CCN(C4CC(c5ccccc5F)C4)C[C@@H]3C(=O)O)c2c1 (stereo partly drawn) [Example 7, (3R,4R)-1-[3-(2-fluorophenyl)cyclobutyl]-4-[3-hydroxy-3-(6-methoxyquinolin-4-yl)propyl] piperidine-3-carboxylic acid] | 0.25 µg/mL (≈ 0.508 µM) | 0.125 µg/mL (≈ 0.254 µM) | 1 µg/mL (≈ 2.03 µM) | 0.125 µg/mL (≈ 0.254 µM) | 0.125 µg/mL (≈ 0.254 µM) | – | – | – | – | – |
| COc1ccc2nccc([C@@H](O)CC[C@@H]3CCN(C4CC(c5cccc(C#N)c5)C4)C[C@@H]3C(=O)O)c2c1 (stereo partly drawn) [Example 223, (3R,4R)-1-[3-(3-cyanophenyl)cyclobutyl]-4-[(3S)-3-hydroxy-3-(6-methoxyquinolin-4-yl)propyl]piperidine-3-carboxylic acid] | 16 µg/mL (≈ 32 µM) | 4 µg/mL (≈ 8.01 µM) | 32 µg/mL (≈ 64 µM) | 4 µg/mL (≈ 8.01 µM) | 8 µg/mL (≈ 16 µM) | – | – | – | – | – |
| COc1ccc2nccc([C@@H](O)CC[C@@H]3CCN(C4CC(c5c(F)cccc5Cl)C4)C[C@@H]3C(=O)O)c2c1 (stereo partly drawn) [Example 63, (3R,4R)-1-[3-(2-chloro-6-fluorophenyl)cyclobutyl]-4-[(3S)-3-hydroxy-3-(6-methoxyquinolin-4-yl)propyl]piperidine-3-carboxylic acid] | 0.125 µg/mL (≈ 0.237 µM) | ≤ 0.0625 µg/mL | 2 µg/mL (≈ 3.79 µM) | ≤ 0.0625 µg/mL | ≤ 0.0625 µg/mL | – | – | – | – | – |
| COc1ccc2nccc(C(CC[C@@H]3CCN(C4CC(c5ccccc5)C4)C[C@@H]3C(=O)O)N3CCOCC3)c2c1 (stereo partly shown) [Example 139] | – | – | – | – | – | 2 µg/mL (≈ 3.68 µM) | 2 µg/mL (≈ 3.68 µM) | 16 µg/mL (≈ 29.4 µM) | 4 µg/mL (≈ 7.36 µM) | 2 µg/mL (≈ 3.68 µM) |
| COc1ccc2ncc(Cl)c(CCCC3(C(=O)O)CCN(C4CC(c5c(F)cccc5F)C4)C3)c2c1 (stereo not shown) [Example 87, 3-[3-(3-chloro-6-methoxyquinolin-4-yl)propyl]-1-[3-(2,6-difluorophenyl)cyclobutyl] pyrrolidine-3-carboxylic acid] | ≤ 0.0625 µg/mL | ≤ 0.0625 µg/mL | 8 µg/mL (≈ 15.5 µM) | ≤ 0.0625 µg/mL | ≤ 0.0625 µg/mL | – | – | – | – | – |
| COc1ccc2nccc(C(O)CC[C@@H]3CCN(C4CC(CC5CCCO5)C4)C[C@@H]3C(=O)O)c2c1 (stereo partly drawn) [Example 52, (3R,4R)-4-[3-hydroxy-3-(6-methoxyquinolin-4-yl)propyl]-1-[3-(tetrahydrofuran-2-ylmethyl)cyclobutyl]piperidine-3-carboxylic acid] | > 64 µg/mL | 16 µg/mL (≈ 33.2 µM) | 16 µg/mL (≈ 33.2 µM) | 8 µg/mL (≈ 16.6 µM) | 32 µg/mL (≈ 66.3 µM) | – | – | – | – | – |
| COc1ccc2nccc(C(O)CC[C@@H]3CCN(C4CC(c5nc(C6CCC6)no5)C4)C[C@@H]3C(=O)O)c2c1 (stereo partly drawn) [Example 163, (3R,4R)-1-[3-(3-cyclobutyl-1,2,4-oxadiazol-5-yl)cyclobutyl]-4-[3-hydroxy-3-(6-methoxyquinolin-4-yl)propyl]piperidine-3-carboxylic acid] | > 64 µg/mL | 64 µg/mL (≈ 123 µM) | > 64 µg/mL | > 64 µg/mL | > 64 µg/mL | – | – | – | – | – |
| COc1ccc2ncc(Cl)c(C(O)CC[C@@H]3CCN(C4CC(c5c(F)cccc5F)C4)C[C@@H]3C(=O)O)c2c1 (stereo partly drawn) [Example 214, (3R,4R)-4-[3-(3-chloro-6-methoxyquinolin-4-yl)-3-hydroxypropyl]-1-[3-(2,6-difluorophenyl)cyclobutyl]piperidine-3-carboxylic acid] | – | – | – | – | – | <0.0625 µg/mL | <0.0625 µg/mL | 2.00 µg/mL (≈ 3.67 µM) | <0.0625 µg/mL | <0.0625 µg/mL |
| COc1ccc2ncc(Cl)c(CCNC3(C(=O)O)CCCN(C4CC(c5cccc(F)c5)C4)CC3)c2c1 (stereo not shown) [Example 155, 4-{[2-(3-chloro-6-methoxyquinolin-4-yl)ethyl]amino}-1-[3-(3-fluorophenyl)cyclobutyl] azepane-4-carboxylic acid] | 1 µg/mL (≈ 1.9 µM) | 0.125 µg/mL (≈ 0.238 µM) | 4 µg/mL (≈ 7.6 µM) | 0.25 µg/mL (≈ 0.475 µM) | 0.125 µg/mL (≈ 0.238 µM) | – | – | – | – | – |
